# Measurements from the supplement of paper PMC10307832.
# Key:
# Assay in all cases: relative viability (nuclei count vs DMSO), 5 days (fraction); higher = more cells survive
# [1] = test system: LU99A
# In short: (§1)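 Nuclei were stained with Hoechst during a one-step fixation (final 0.05% Triton X-100, 1% formaldehyde, 1 ug/ml Hoechst) carried out 5 days after dosing, then counted on 4× images. The cells, lung cancer lines in 1536-well plates, had been dosed by pin tool the day after seeding with one drug alone or a fixed anchor-drug dose plus five library-drug doses (not always all listed) in √10 steps. Relative viability is the nuclei count in treated wells divided by that in vehicle wells, and each value is the median of duplicate plates.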
# [2] = test system: NCI-H1793
# In short: as §1
# [3] = test system: RERF-LC-KJ
# In short: as §1
# [4] = test system: NCI-H2405
# In short: as §1
# [5] = test system: SW 1573
# In short: as §1
# [6] = test system: NCI-H460
# In short: as §1
# [7] = test system: NCI-H1666
# In short: as §1
# [8] = test system: BEN
# In short: as §1
# [9] = test system: NCI-H1915
# In short: as §1
# [10] = test system: NCI-H1975
# In short: as §1
# [11] = test system: NCI-H650
# In short: as §1
# [12] = test system: NCI-H1395
# In short: as §1
# [13] = test system: NCI-H2023
# In short: as §1
# [14] = test system: HARA
# In short: as §1
# [15] = test system: EKVX
# In short: as §1
# [16] = test system: A-427
# In short: as §1
# [17] = test system: NCI-H1650
# In short: as §1
# [18] = test system: LOU-NH91
# In short: as §1
# [19] = test system: NCI-H838
# In short: as §1
# [20] = test system: COR-L23
# In short: as §1
# [21] = test system: NCI-H1993
# In short: as §1
smiles,measurement,setting,value
COCC1(CO)C(=O)C2CCN1CC2 (stereo not drawn) [PRIMA-1MET] + Nc1ncn([C@H]2C[C@H](O)[C@@H](CO)O2)c(=O)n1 [Decitabine] (partner 2 µM),relative viability,[1]; first compound 0.2 µM,0.776
same,relative viability,[1]; first compound 0.6325 µM,0.722
same,relative viability,[1]; first compound 2 µM,0.888
same,relative viability,[1]; first compound 6.325 µM,0.674
same,relative viability,[1]; first compound 20 µM,0.51
same,relative viability,[2]; first compound 0.2 µM,0.484
same,relative viability,[2]; first compound 0.6325 µM,0.333
same,relative viability,[2]; first compound 6.325 µM,0.489
same,relative viability,[2]; first compound 20 µM,0.424
same,relative viability,[3]; first compound 0.2 µM,0.753
same,relative viability,[3]; first compound 0.6325 µM,0.617
same,relative viability,[3]; first compound 2 µM,0.718
same,relative viability,[3]; first compound 6.325 µM,0.69
same,relative viability,[3]; first compound 20 µM,0.595
same,relative viability,[4]; first compound 0.2 µM,0.593
same,relative viability,[4]; first compound 0.6325 µM,0.508
same,relative viability,[4]; first compound 6.325 µM,0.645
same,relative viability,[4]; first compound 20 µM,0.296
same,relative viability,[5]; first compound 0.2 µM,0.58
same,relative viability,[5]; first compound 2 µM,0.285
same,relative viability,[5]; first compound 6.325 µM,0.0265
same,relative viability,[5]; first compound 20 µM,0.0223
same,relative viability,[6]; first compound 0.2 µM,0.595
same,relative viability,[6]; first compound 0.6325 µM,0.136
same,relative viability,[6]; first compound 2 µM,0.455
same,relative viability,[6]; first compound 6.325 µM,0.513
same,relative viability,[6]; first compound 20 µM,0.0203
same,relative viability,[7]; first compound 0.2 µM,0.637
same,relative viability,[7]; first compound 0.6325 µM,0.492
same,relative viability,[7]; first compound 2 µM,0.645
same,relative viability,[7]; first compound 6.325 µM,0.724
same,relative viability,[7]; first compound 20 µM,0.756
same,relative viability,[8]; first compound 0.2 µM,0.747
same,relative viability,[8]; first compound 0.6325 µM,0.473
same,relative viability,[8]; first compound 6.325 µM,0.652
same,relative viability,[8]; first compound 20 µM,0.632
same,relative viability,[9]; first compound 0.2 µM,0.278
same,relative viability,[9]; first compound 0.6325 µM,0.234
same,relative viability,[9]; first compound 2 µM,0.252
same,relative viability,[9]; first compound 6.325 µM,0.256
same,relative viability,[9]; first compound 20 µM,0.27
same,relative viability,[10]; first compound 0.2 µM,0.389
same,relative viability,[10]; first compound 0.6325 µM,0.329
same,relative viability,[10]; first compound 2 µM,0.343
same,relative viability,[10]; first compound 6.325 µM,0.431
same,relative viability,[10]; first compound 20 µM,0.371
same,relative viability,[11]; first compound 0.2 µM,0.315
same,relative viability,[11]; first compound 0.6325 µM,0.255
same,relative viability,[11]; first compound 2 µM,0.315
same,relative viability,[11]; first compound 6.325 µM,0.332
same,relative viability,[11]; first compound 20 µM,0.199
same,relative viability,[12]; first compound 0.2 µM,0.712
same,relative viability,[12]; first compound 2 µM,0.708
same,relative viability,[12]; first compound 6.325 µM,0.838
same,relative viability,[12]; first compound 20 µM,0.67
same,relative viability,[13]; first compound 0.2 µM,0.211
same,relative viability,[13]; first compound 0.6325 µM,0.128
same,relative viability,[13]; first compound 2 µM,0.235
same,relative viability,[13]; first compound 6.325 µM,0.216
same,relative viability,[13]; first compound 20 µM,0.209
same,relative viability,[14]; first compound 0.2 µM,0.478
same,relative viability,[14]; first compound 0.6325 µM,0.354
same,relative viability,[14]; first compound 2 µM,0.622
same,relative viability,[14]; first compound 6.325 µM,0.607
same,relative viability,[14]; first compound 20 µM,0.607
same,relative viability,[15]; first compound 0.2 µM,0.407
same,relative viability,[15]; first compound 2 µM,0.277
same,relative viability,[15]; first compound 6.325 µM,0.336
same,relative viability,[15]; first compound 20 µM,0.199
same,relative viability,[16]; first compound 0.2 µM,0.648
same,relative viability,[16]; first compound 0.6325 µM,0.532
same,relative viability,[16]; first compound 2 µM,0.621
same,relative viability,[16]; first compound 6.325 µM,0.568
same,relative viability,[16]; first compound 20 µM,0.501
same,relative viability,[17]; first compound 0.2 µM,0.485
same,relative viability,[17]; first compound 0.6325 µM,0.314
same,relative viability,[17]; first compound 2 µM,0.314
same,relative viability,[17]; first compound 6.325 µM,0.382
same,relative viability,[17]; first compound 20 µM,0.279
same,relative viability,[18]; first compound 0.2 µM,0.89
same,relative viability,[18]; first compound 0.6325 µM,0.794
same,relative viability,[18]; first compound 2 µM,0.806
same,relative viability,[18]; first compound 6.325 µM,0.828
same,relative viability,[18]; first compound 20 µM,0.613
same,relative viability,[19]; first compound 0.2 µM,0.435
same,relative viability,[19]; first compound 0.6325 µM,0.312
same,relative viability,[19]; first compound 2 µM,0.474
same,relative viability,[19]; first compound 6.325 µM,0.472
same,relative viability,[19]; first compound 20 µM,0.453
same,relative viability,[20]; first compound 0.2 µM,0.538
same,relative viability,[20]; first compound 0.6325 µM,0.243
same,relative viability,[20]; first compound 2 µM,0.397
same,relative viability,[20]; first compound 6.325 µM,0.439
same,relative viability,[20]; first compound 20 µM,0.036
same,relative viability,[21]; first compound 0.2 µM,0.57
same,relative viability,[21]; first compound 2 µM,0.57
same,relative viability,[21]; first compound 6.325 µM,0.731
same,relative viability,[21]; first compound 20 µM,0.564
